Measurements taken from US20240066065A1, “PLATELET DERIVATIVES FOR TREATING COAGULOPATHY” (Cellphire, Inc., priority 2019, published 2024).

Columns and labels:
dabigatran treated PRP = settings: dabigatran 100 ng/mL (18.89 untreated)
Method: • (1) Open CAT software; set up instrument; and prepare PRP reagent (including Tissue Factor and some phospholipids), calibrator, and fluoro-buffer according to manufacturer guidelines. • (2) Thaw warfarin or control plasma in 37° C. water bath for 5 minutes. • (3) Rehydrate thrombosomes with cell culture grade water for 10 minutes then dilute with Control Buffer to double target concentration. • (4) For each sample, combine 1:1 volumes of Control Buffer with or without thrombosomes and plasma. • (5) Using a multichannel pipette, add 20 μL of PRP reagent to each well. • (6) Add 80 μL of sample per well.

whole blood = experiment: T-TAS thrombus formation under flow, AR chip (collagen+TF), rivaroxaban-anticoagulated whole blood; format: cell-based, human
Description: (§1) In the Total Thrombus-formation Analysis System (T-TAS®, FUJIMORI KOGYO CO., LTD), the sample is forced through collagen-coated microchannels using mineral oil. Changes in pressure are used to assess thrombus formation. The Occlusion Start Time is time it takes to reach 10 kPa, and the Occlusion Time=time it takes to each Δ80 kPa using an AR chip (e.g., Zacros Item No, TC0101). According to the manufacturer, an AR chip can be used for analyzing the formation of a mixed white thrombus consisting chiefly of fibrin and activated platelets. It has a flow path (300 μm wide by 50 μm high) coated with collagen and tissue factors and can be used to analyze the clotting function and platelet function. In comparison, a PL chip can be used for analyzing the formation of a platelet thrombus consisting chiefly of activated platelets. A PL chip has a flow path coated with collagen only and can be used to analyze the platelet function.
Rivaroxaban (sometimes herein called Riv) dose-response in whole blood was measured using T-TAS®. An AR chip (Collagen+TF) was used. T-TAS® assays were performed according to Example 3. The donor platelets were used at 307k/μL.
Thrombosomes were prepared consistent with the procedures described in U.S. Pat. No. 8,486,617 (such as, e.g., Examples 1-5) and U.S. Pat. No. 8,097,403 (such as, e.g., Examples 1-3), and rehydrated by addition of sterile water. T-TAS® assays were run according to Example 3 using 3 μM rivaroxaban and different concentrations of thrombosomes (FIG. 10A, Table 8). The ‘No Riv’ vertical line indicates the approximate occlusion time of a sample with no added rivaroxaban.

Platelet rich plasma = experiment: T-TAS flow system (collagen and tissue factor coated channel), rivaroxaban-treated platelet rich plasma; format: cell-based, human; settings: 3 μM rivaroxaban (6.04 without)
Description: as §1
In a similar experiment, T-TAS® assays were run according to Example 3 with no rivaroxaban, 3 μM rivoroxaban, and 3 μM rivoroxaban and 300×10^3/μL thrombosomes. Platelet rich plasma that was treated with 3 μM rivaroxaban extended occlusion times from 6.04 to 26.01 minutes on the T-TAS® flow system (collagen and tissue factor coated channel).

heparinized plasma = experiment: Thrombin generation assay in heparinized George King Plasma; format: biochemical, human; settings: 2 U/mL heparin, 20 μg/mL protamine sulfate, thrombosomes 5K, 50K, 150K per μL
Method: Thrombosomes were prepared consistent with the procedures described in U.S. Pat. No. 8,486,617 (such as, e.g., Examples 1-5) and U.S. Pat. No.8,097,403 (such as, e.g., Examples 1-3), and rehydrated by addition of sterile water. aPTT and thrombin generation assays were performed as described in Example 3. […] The dashed line at approximately 70 seconds denotes the limit of abnormal aPTT and the second dashed line is the maximum time measured by the instrument (120 sec). Thrombin generation in heparin treated samples was also measured. […] The dashed line in FIGS. 23B and 23C denotes a typical thrombin peak value seen in this assay for control plasma.
The dashed line at approximately 70 seconds denotes the limit of abnormal aPTT and the second dashed line is the maximum time measured by the instrument (120 sec). Thrombin generation in heparin treated samples was also measured, with and without protamine sulfate. […] The dashed line in FIGS. 24B and 24C enotes a typical thrombin peak value seen in this assay for control plasma.

Question: Which Time to peak (dabigatran treated PRP) does the source give for dabigatran here?
Answer: The Time to peak was 34.67 min.

Question: For `O=C(NC[C@H]1CN(c2ccc(N3CCOCC3=O)cc2)C(=O)O1)c1ccc(Cl)s1` [rivaroxaban], which AUC (whole blood; 1 uM rivaroxaban) is on record?
Answer: The AUC was 1686 kPa*min.

Question: And the “Occ Spd” value (whole blood; 1 uM rivaroxaban)?
Answer: Its value is 20.9 kPa/min.

Question: What about the AUC (whole blood; 3 uM rivaroxaban) of the same molecule?
Answer: Its AUC is 423 kPa*min.

Question: And the “Occ Spd” value (whole blood; 3 uM rivaroxaban)?
Answer: Its value is 28.2 kPa/min.

Question: What about the AUC (whole blood; 9 uM rivaroxaban) of the same molecule?
Answer: Its AUC is 13.6 kPa*min.

Question: And the “occlusion and thrombus formation” value (whole blood; 9 μM rivaroxaban (a pharmacological dose))?
Answer: The value was “inhibits occlusion but not all thrombus formation”.

Question: What about the occlusion time (Platelet rich plasma) of the same molecule?
Answer: The occlusion time was 26.01 min.

Question: For Protamine Sulfate, which “thrombosome-mediated thrombin generation after heparin reversal” value (heparinized plasma) is on record?
Answer: The value was “Restores Thrombosome-Mediated Thrombin Generation”.
